This is an account of results in US7592457B2 (Korea Research Institute of Chemical Technology, priority 2004, dated 2009).

In one experiment the target is T1, 5-HT2a (Homo sapiens, UniProt P28223).
T1 construct: purchased Euroscreen/BioSignal Packard Inc
Nature of the experiment: Radioligand binding, 5-HT2a ([3H]Ketanserin). Particulars: read-out: Binding affinity (Inhibition rate % at 10 μM) 5HT2a. The protocol:
(§1) Radioligand bindings were performed according to the test method provided by the supplier of receptor membrane (Euroscreen/BioSignal Packard Inc.).

Another experiment deals with T2, hD3 receptor (Homo sapiens, UniProt P35462).
T2 construct: purchased BioSignal Packard Inc., Montreal, Canada
Nature of the experiment: Radioligand binding, dopamine D3 ([3H]spiperone). Particulars: read-out: Binding affinity (Inhibition rate % at 10 μM) D3. The protocol:
(§2) The radioligands used were [^3H] spiperone (for hD2L and hD3 receptors, 1 nM) and [^3H] YM-09151-2 (for hD4.2 receptor, 0.06 nM). Radioligand bindings were performed by the protocols provided by the supplier of receptor membranes (BioSignal Packard Inc., Montreal, Canada). Briefly, the buffer used in D2 or D3 receptor binding assay was 50 mM Tris-HCl (pH 7.4), 10 mM MgCl2, 1 mM EDTA, or 50 mM Tris-HCl (pH 7.4), 5 mM MgCl2, 5 mM EDTA, 5 mM KCl, 1.5 mM CaCl2, 120 mM NaCl, respectively. In [^3H] YM-09151-2 receptor binding assays, the buffer containing 50 mM Tris-HCl (pH 7.4), 5 mM MgCl2, 5 mM EDTA, 5 mM KCl and 1.5 mM CaCl2 was used. Nonspecific binding was determined with haloperidol (10 μM) or clozapine (10 μM) for D2 and D3, and D4 receptors, respectively. Competition binding studies were carried out with 7-8 concentrations of the test compound run in duplicate tubes, and isotherms from three assays were calculated by computerized nonlinear regression analysis (GraphPad Prism Program, San Diego, […]) to yield median inhibitory concentration (IC50) values.

A further experiment has as its target D1 (Homo sapiens, UniProt P21728). Nature of the experiment: Radioligand binding for selectivity, D1. Particulars: read-out: Binding affinity (Inhibition rate % at 10 μM) D1.
In another experiment the target is T3, hD4.2 receptor (Homo sapiens, UniProt P21917, DEL265-296).
T3 construct: purchased BioSignal Packard Inc., Montreal, Canada
T3 sequence (P21917 with tags, fused parts or gaps DEL265-296): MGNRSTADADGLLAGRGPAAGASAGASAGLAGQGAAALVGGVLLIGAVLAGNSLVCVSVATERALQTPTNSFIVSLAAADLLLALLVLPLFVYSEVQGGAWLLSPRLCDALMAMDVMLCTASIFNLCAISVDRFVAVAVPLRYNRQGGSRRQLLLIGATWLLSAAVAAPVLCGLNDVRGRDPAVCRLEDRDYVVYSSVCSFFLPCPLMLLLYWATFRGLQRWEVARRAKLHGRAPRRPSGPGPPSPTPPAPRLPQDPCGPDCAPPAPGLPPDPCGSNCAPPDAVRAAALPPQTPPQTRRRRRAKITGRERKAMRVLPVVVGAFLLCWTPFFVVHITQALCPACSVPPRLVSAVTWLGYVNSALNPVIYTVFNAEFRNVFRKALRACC
Nature of the experiment: Radioligand binding, dopamine D4 ([3H]YM-09151-2). Particulars: read-out: Binding affinity (Inhibition rate % at 10 μM) D4. Here is the method:
as §2

For experiment [1], the target named is T4, human serotonin 5-HT6 receptor (Homo sapiens, UniProt P50406).
T4 construct: made in house; host or cells: Sf21 insect cells (pBacPAK8 baculovirus vector)
Nature of the experiment: [3H]LSD binding at cloned 5-HT6 receptors. Particulars: for IC50: [3H]LSD 1.87 nM, cloned receptor membranes, 37° C., 60 min, read-out: IC50; for inhibition at 10 µM: read-out: Binding affinity (Inhibition rate % at 10 μM) 5HT6.

A further experiment deals with T5, 5-HT2c (Homo sapiens, UniProt P28335).
T5 construct: purchased Euroscreen/BioSignal Packard Inc
T5 sequence (P28335 33-458): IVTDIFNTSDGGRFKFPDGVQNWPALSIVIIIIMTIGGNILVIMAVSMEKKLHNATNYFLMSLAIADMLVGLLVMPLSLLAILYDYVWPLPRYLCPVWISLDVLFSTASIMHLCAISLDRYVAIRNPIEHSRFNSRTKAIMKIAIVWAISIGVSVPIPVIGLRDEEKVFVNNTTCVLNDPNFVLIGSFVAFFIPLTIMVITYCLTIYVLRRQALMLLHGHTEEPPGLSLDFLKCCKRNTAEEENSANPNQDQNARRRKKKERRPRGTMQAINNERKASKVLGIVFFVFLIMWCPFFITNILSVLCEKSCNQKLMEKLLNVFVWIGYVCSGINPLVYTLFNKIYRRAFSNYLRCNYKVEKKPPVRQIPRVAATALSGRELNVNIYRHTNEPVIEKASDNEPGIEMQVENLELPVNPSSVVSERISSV
Nature of the experiment: Radioligand binding, 5-HT2c ([3H]Mesulergine). Particulars: read-out: Binding affinity (Inhibition rate % at 10 μM) 5HT2c. Here is the method: as §1

For the next experiment, the target named is T6, hD2L receptor (Homo sapiens, UniProt P14416).
T6 construct: purchased BioSignal Packard Inc., Montreal, Canada
Nature of the experiment: Radioligand binding, dopamine D2 ([3H]spiperone). Particulars: read-out: Binding affinity (Inhibition rate % at 10 μM) D2. The protocol: as §2

The target in the next experiment is T7, 5-HT7 (Homo sapiens, UniProt P34969).
T7 construct: purchased Euroscreen/BioSignal Packard Inc
The experiment in a line: Radioligand binding, 5-HT7 ([3H]LSD). Particulars: read-out: Binding affinity (Inhibition rate % at 10 μM) 5HT7. The protocol:
as §1

In another experiment the target is T8, 5-HT1a (Homo sapiens, UniProt P08908).
T8 construct: purchased Euroscreen/BioSignal Packard Inc
T8 sequence (P08908 1-422): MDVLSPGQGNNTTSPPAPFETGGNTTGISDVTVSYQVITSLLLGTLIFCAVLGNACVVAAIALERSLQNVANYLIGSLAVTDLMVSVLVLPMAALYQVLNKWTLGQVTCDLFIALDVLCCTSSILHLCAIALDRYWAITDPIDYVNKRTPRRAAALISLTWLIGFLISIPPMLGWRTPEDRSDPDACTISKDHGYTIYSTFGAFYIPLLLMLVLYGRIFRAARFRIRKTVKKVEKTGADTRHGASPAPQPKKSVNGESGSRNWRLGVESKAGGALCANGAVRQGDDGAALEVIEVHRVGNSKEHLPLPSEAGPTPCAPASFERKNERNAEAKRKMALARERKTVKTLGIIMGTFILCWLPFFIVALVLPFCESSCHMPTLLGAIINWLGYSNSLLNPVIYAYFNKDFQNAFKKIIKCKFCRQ
The experiment in a line: Radioligand binding, 5-HT1a ([3H]8-OH-DPAT). Particulars: read-out: Binding affinity (Inhibition rate % at 10 μM) 5HT1a. Here is the method:
as §1

T4 sequence (P50406 whole entry): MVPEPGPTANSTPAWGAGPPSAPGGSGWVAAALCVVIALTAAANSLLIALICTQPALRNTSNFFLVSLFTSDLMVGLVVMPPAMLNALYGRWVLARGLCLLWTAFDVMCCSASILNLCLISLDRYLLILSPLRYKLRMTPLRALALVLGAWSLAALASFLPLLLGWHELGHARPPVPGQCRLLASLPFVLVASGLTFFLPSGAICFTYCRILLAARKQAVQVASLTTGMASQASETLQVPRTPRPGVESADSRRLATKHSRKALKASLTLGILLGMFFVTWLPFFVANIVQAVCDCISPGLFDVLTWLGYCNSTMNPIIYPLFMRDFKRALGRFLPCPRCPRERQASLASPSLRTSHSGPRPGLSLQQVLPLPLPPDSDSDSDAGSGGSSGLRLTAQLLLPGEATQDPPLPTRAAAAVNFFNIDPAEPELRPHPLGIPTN
T7 sequence (P34969 whole entry): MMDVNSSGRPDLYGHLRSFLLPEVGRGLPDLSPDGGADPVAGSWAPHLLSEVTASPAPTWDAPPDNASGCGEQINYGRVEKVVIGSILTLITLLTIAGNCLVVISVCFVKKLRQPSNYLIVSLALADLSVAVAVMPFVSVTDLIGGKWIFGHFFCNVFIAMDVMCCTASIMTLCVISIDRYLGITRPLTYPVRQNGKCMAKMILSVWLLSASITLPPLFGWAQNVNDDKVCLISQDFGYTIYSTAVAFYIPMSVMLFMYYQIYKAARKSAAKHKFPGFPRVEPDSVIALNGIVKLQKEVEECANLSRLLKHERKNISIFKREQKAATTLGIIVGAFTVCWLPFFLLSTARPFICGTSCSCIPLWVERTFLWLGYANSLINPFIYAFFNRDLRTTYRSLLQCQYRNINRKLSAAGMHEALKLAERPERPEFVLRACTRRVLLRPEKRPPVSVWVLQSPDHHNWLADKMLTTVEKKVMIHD
Sequence of D1 (P21728 whole entry): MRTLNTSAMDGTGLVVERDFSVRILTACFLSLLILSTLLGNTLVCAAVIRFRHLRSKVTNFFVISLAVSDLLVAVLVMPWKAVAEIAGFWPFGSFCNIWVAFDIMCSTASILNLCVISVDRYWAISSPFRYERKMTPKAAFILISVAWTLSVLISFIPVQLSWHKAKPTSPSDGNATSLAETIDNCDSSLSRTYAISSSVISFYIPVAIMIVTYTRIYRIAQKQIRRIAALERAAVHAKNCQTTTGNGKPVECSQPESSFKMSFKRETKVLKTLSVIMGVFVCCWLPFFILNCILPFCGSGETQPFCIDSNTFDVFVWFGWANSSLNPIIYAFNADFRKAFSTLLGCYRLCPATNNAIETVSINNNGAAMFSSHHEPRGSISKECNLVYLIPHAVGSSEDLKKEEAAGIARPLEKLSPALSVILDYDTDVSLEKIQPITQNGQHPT
T2 sequence (P35462 whole entry): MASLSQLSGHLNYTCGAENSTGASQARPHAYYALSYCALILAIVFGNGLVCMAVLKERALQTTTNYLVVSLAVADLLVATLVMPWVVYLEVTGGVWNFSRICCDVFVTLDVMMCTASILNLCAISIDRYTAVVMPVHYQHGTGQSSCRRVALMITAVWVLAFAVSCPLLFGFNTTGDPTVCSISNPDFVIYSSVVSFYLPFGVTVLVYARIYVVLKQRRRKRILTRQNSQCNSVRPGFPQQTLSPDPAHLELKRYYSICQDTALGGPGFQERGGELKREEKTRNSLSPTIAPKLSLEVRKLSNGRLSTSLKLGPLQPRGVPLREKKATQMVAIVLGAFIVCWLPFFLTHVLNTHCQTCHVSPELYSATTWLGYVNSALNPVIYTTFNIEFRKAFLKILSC
T1 sequence (P28223 whole entry): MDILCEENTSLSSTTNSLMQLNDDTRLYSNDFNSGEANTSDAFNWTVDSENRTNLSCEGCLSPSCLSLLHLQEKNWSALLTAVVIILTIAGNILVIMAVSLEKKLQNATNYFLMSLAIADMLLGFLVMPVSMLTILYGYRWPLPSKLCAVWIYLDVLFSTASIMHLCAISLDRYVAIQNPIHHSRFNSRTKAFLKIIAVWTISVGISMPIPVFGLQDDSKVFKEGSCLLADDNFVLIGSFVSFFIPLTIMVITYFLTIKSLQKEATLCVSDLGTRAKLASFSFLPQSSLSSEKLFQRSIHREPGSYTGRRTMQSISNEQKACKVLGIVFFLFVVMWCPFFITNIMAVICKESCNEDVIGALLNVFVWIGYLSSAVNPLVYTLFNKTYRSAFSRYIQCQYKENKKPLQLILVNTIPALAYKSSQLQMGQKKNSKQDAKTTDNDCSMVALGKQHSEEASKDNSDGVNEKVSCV
T6 sequence (P14416 whole entry): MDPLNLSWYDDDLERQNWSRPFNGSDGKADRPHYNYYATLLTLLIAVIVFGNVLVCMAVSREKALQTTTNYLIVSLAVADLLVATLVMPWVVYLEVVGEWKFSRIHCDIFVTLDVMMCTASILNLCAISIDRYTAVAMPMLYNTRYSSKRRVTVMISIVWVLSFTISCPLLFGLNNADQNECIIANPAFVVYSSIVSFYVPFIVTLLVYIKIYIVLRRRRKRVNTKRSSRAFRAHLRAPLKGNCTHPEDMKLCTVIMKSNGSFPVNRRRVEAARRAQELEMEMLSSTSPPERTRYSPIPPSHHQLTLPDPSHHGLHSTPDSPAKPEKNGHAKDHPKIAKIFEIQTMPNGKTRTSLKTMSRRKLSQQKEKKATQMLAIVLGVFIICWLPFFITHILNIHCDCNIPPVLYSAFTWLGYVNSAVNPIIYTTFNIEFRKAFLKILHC

As usually defined, the inhibition is the drop in the measured response relative to a control, in per cent. As usually defined, the IC50 is the concentration that inhibits the measured activity by half. Consider `COc1cc(Cl)c2c(c1)NC(=O)C(C)(c1ccccc1)C2=O` (stereo not shown) [Example 5, 5-chloro-7-methoxy-3-methyl-3-phenyl-1H-quinoline-2,4-dione], for which the inhibition at 10 µM at 5-HT2a was determined as 26.8%; on hD3 receptor, 10.1%; at D1, 10.3%; at hD4.2 receptor, 0%; in experiment [1], 73.5%; at 5-HT2c, 20.5%. For the same compound, the figures for the inhibition at 10 µM on hD2L receptor, at 5-HT7 and on 5-HT1a were 20.5%, 9.4% and 18.9%, respectively. In addition, the IC50 in [1] is 560 nM.
In the case of `COc1cc(Br)c2c(c1)NC(=O)C(C)(c1ccccc1)C2=O` (stereo not shown) [Example 7, 5-bromo-7-methoxy-3-methyl-3-phenyl-1H-quinoline-2,4-dione], the inhibition at 10 µM came to 25.4% on 5-HT2a; 1.5% at hD3 receptor; 30.5% at D1; 0.8% on hD4.2 receptor; 71.1% in experiment [1]; 30.3% at 5-HT2c. Also, the inhibition at 10 µM came to 12.8% on hD2L receptor, 12.4% on 5-HT7 and 29.1% at 5-HT1a. Further, the IC50 in [1] turned out to be 119 nM.
In the case of `CC1(c2ccccc2)C(=O)Nc2c(Br)cc(Br)cc2C1=O` (stereo not shown) [Example 10, 6,8-dibromo-3-methyl-3-phenyl-1H-quinoline-2,14-dione], the inhibition at 10 µM was 29.5% on 5-HT2a; 19.5% on hD3 receptor; 13.5% at D1; 0% on hD4.2 receptor; 73.4% in [1]; 16.8% on 5-HT2c. Moreover, the values for the inhibition at 10 µM at hD2L receptor, on 5-HT7 and on 5-HT1a were 11.2%, 20.7% and 0%, respectively. In addition, the IC50 in [1] is 1330 nM.
Regarding `CC1(c2ccc([N+](=O)[O-])cc2)C(=O)Nc2cc(Cl)cc(Cl)c2C1=O` (stereo not shown) [Example 14, 5,7-dichloro-3-methyl-3-(4-nitro-phenyl)-1H-quinoline-2,4-dione], the inhibition at 10 µM on 5-HT2a stood at 54.1%; at hD3 receptor, 30.7%; at D1, 6.5%; at hD4.2 receptor it was 0%; in experiment [1] it was 71.2%; at 5-HT2c, 3.8%. Further, the inhibition at 10 µM on hD2L receptor is 26.5%; on 5-HT7, 10.8%; at 5-HT1a, 60.5%. The IC50 in [1] turned out to be 870 nM.
Regarding `CC1(c2ccc(N)cc2)C(=O)Nc2cc(Cl)cc(Cl)c2C1=O` (stereo not shown) [Example 15, 3-(4-amino-phenyl)-5,7-dichloro-3-methyl-1H-quinoline-2,4-dione], the inhibition at 10 µM on 5-HT2a worked out at 16.9%; on hD3 receptor, 5.8%; on D1, 4.8%; on hD4.2 receptor, 4.5%; in [1] it was 73%; on 5-HT2c, 15.6%. In addition, the results for the inhibition at 10 µM at hD2L receptor, on 5-HT7 and at 5-HT1a were 0%, 11.1% and 52.3%, respectively. Besides, the IC50 in [1] turned out to be 254 nM.
On to `CC1(c2ccc(I)cc2)C(=O)Nc2cc(Cl)cc(Cl)c2C1=O` (stereo not shown) [Example 16, 5,7-dichloro-3-(4-iodo-phenyl)-3-methyl-1H-quinoline-2,4-dione], for which the inhibition at 10 µM was 47.2% at 5-HT2a; 10% on hD3 receptor; 24.7% at D1; 1.3% at hD4.2 receptor; 70.9% in [1]; 34.5% at 5-HT2c. For the same compound, the inhibition at 10 µM on hD2L receptor stood at 20.1%; at 5-HT7, 50.7%; at 5-HT1a, 43.5%. Also, the IC50 in [1] was determined as 1550 nM.
On to `CC1(c2ccc(Cl)cc2)C(=O)Nc2cc(Cl)cc(Cl)c2C1=O` (stereo not shown) [Example 17, 5,7-dichloro-3-(4-chloro-phenyl)-3-methyl-1H-quinoline-2,4-dione], for which the inhibition at 10 µM on 5-HT2a worked out at 30.2%; at hD3 receptor, 16.5%; on D1, 13.8%; at hD4.2 receptor, 0.5%; in [1], 69.8%; at 5-HT2c, 21.2%. Moreover, the inhibition at 10 µM on hD2L receptor was 7.5%; on 5-HT7, 26.9%; at 5-HT1a, 26.7%. The IC50 in [1] was 1430 nM.
As to `CC1(c2ccc(Br)cc2Br)C(=O)Nc2cc(Cl)cc(Cl)c2C1=O` (stereo not shown) [Example 27, 3-(2,4-dibromo-phenyl)-5,7-dichloro-3-methyl-1H-quinoline-2,4-dione], the inhibition at 10 µM on 5-HT2a was determined as 30.8%; at hD3 receptor, 15.6%; at D1, 25.8%; at hD4.2 receptor it was 1.6%; in experiment [1] it was 71.1%; at 5-HT2c it was 28.1%. Further, the inhibition at 10 µM at hD2L receptor is 10.2%; at 5-HT7 it was 12.3%; at 5-HT1a, 46%. Moreover, the IC50 in experiment [1] is 349 nM.
For the compound `COc1ccc(C2(C)C(=O)Nc3c(Br)cc(Br)cc3C2=O)cc1[N+](=O)[O-]` (stereo not shown) [Example 28, 6,8-dibromo-3-(4-methoxy-3-nitro-phenyl)-3-methyl-1H-quinoline-2,4-dione], the inhibition at 10 µM is 9% on 5-HT2a; 40.9% at hD3 receptor; 46.9% at D1; 2.3% on hD4.2 receptor; 73.2% in experiment [1]; 13.7% on 5-HT2c. In addition, the figures for the inhibition at 10 µM on hD2L receptor, on 5-HT7 and on 5-HT1a were 9.4%, 10.2% and 60.9%, respectively. Besides, in experiment [1], the IC50 stood at 1200 nM.
As to `COc1ccc(C2(C)C(=O)Nc3c(Br)cc(Br)cc3C2=O)cc1N` (stereo not shown) [Example 29, 3-(3-amino-4-methoxy-phenyl)-6,8-dibromo-3-methyl-1H-quinoline-2,4-dione], the inhibition at 10 µM at 5-HT2a amounted to 21.1%; at hD3 receptor, 43.8%; on D1, 23.6%; on hD4.2 receptor, 11.6%; in experiment [1], 68.5%; at 5-HT2c, 40.6%. The inhibition at 10 µM on hD2L receptor worked out at 5.6%; on 5-HT7, 28.1%; on 5-HT1a, 40.7%. In addition, the IC50 in experiment [1] was 1550 nM.
